From patent US12370237B2, “Lipopeptides for use in treating liver diseases and cardiovascular diseases” (RUPRECHT-KARLS-UNIVERSITAET HEIDELBERG, priority 2012, dated 2025)

Legend:
hNTCP = biological target: T1, hNTCP (Homo sapiens, UniProt Q14973); experiment: MyrB^atto binding competition assay by FACS in HuH7^hNTCP cells; conditions: 500 μM
T1 construct: host or cells: HuH7
T1 sequence (Q14973 1-349): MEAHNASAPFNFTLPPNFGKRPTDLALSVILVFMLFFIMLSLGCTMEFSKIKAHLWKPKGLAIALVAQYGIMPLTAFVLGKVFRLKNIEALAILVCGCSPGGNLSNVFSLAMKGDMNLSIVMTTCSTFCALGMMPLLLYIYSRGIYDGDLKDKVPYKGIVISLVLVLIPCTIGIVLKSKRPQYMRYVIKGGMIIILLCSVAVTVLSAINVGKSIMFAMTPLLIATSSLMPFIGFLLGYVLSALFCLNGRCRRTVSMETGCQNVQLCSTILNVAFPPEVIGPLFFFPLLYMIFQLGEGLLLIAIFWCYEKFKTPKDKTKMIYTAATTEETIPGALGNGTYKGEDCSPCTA
Experimental: Binding was quantified by FACS analysis.
(§1) Cells were washed (PBS/1% BSA), trypsinized, and suspended in Krebs-Henseleit-Buffer. Flow cytometry was performed on a FACS Canto II (BD Bioscience, Heidelberg, Germany); FlowJo v7.61 software (Treestar, Ashton, USA) was used for analysis. Compensation was performed using BD Compbeats (BD Bioscience, Heidelberg, Germany).

HBV = HBV infection of differentiated HepaRG and HuH7^hNTCP cells in presence of NTCP substrates (secreted HBeAg); type: cell-based; conditions: for Reduction of HBV infection (HBeAg secretion): 5 μM; for Inhibition of HBV infection as shown by HBeAg secretion: 50 μM and 500 μM
mNtcp = biological target: T2, mNtcp (Mus musculus, UniProt O08705); experiment: MyrB^atto binding to HepG2^mNtcp cells (FACS)
T2 construct: expressed in transfected cells; host or cells: HepG2
T2 sequence (O08705 1-362): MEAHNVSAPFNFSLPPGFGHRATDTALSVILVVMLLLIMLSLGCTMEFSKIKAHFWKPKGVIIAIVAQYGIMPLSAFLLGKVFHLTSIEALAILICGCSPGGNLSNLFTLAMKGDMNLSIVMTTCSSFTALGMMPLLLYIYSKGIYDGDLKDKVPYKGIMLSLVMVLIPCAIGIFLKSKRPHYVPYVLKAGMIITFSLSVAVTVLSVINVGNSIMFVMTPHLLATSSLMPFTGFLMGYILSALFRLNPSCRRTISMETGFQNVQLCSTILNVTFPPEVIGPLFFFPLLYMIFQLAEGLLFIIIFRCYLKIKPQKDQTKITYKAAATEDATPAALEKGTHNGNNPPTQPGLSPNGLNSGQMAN
Experimental: as §1
(§2) Taking advantage of the fluorescence of the ratNTCP-eGFP fusion, we confirmed co-localisation of the MyrB/rNtcp-complex in microvilli.

ratNTCP-eGFP = biological target: T3, ratNTCP-eGFP (Rattus norvegicus, UniProt P26435); experiment: MyrB^atto binding to HepG2 ratNTCP-eGFP cells (confocal microscopy)
T3 construct: expressed in transfected cells; host or cells: HepG2
T3 sequence (P26435 1-362): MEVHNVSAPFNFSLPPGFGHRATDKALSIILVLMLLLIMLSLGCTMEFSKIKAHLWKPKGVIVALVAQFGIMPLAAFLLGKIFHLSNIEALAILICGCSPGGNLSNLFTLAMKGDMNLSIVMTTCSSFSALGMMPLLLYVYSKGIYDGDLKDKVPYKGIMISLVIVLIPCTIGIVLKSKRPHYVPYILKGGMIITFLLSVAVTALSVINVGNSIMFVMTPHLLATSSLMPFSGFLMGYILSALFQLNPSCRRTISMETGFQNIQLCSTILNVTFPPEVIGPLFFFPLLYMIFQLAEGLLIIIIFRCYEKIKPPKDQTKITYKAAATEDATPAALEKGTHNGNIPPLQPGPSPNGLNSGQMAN
Experimental: Note the co-localisation of hNTCP/MyrB^atto in microvilli.
Cells were washed again (3×PBS/2% BSA), fixed with PFA, washed with PBS/1 ug/ml Hoechst 3342 and mounted (FluoromountG). NTCP immune staining was achieved after permeabilisation (10 min/RT) with TritonX 100 using a α-SCL10A1/NTCP antibody (Sigma, Germany) diluted 1:750 in PBS/2% BSA (18 h at 4° C.). A polyclonal rabbit antiserum H863 was used for HBcAg-staining, a polyclonal rabbit antiserum for MRP-2 detection, patient-derived serum (M. Roggendorf, Essen) for HδAg. As secondary antibodies goat anti-rabbit or -human, labelled with either AlexaFluor488 or AlexaFluor546 (Invitrogen) was used. Actin staining was performed by the addition of atto633-labelled Phalloidin diluted 1:2000 (ATTO-Tec, Germany) to the second staining step. Images were taken on a Leica DM IRB or Leica SP2 confocal microscope (Leica, Germany), image analysis was performed using ImageJ.
as §2

Compound | Interference with MyrB^atto (preS) binding (hNTCP) | Reduction of HBV infection (HBeAg secretion) (HBV) | Inhibition of HBV infection as shown by HBeAg secretion (HBV) | Binding to mNtcp-expressing cells (mNtcp) | Binding to rat NTCP-eGFP-expressing cells (ratNTCP-eGFP)
C[C@H](CCC(=O)NCCS(=O)(=O)O)[C@H]1CC[C@H]2[C@@H]3[C@H](O)C[C@@H]4C[C@H](O)CC[C@]4(C)[C@H]3C[C@H](O)[C@]12C [TC, Taurocholate] | profoundly interfered with preS-binding |  |  |  | 
C[C@H](CCC(=O)NCCS(=O)(=O)O)[C@H]1CC[C@H]2[C@@H]3[C@H](O)C[C@@H]4C[C@H](O)CC[C@]4(C)[C@H]3CC[C@]12C [TCDC, Taurochenodeoxy-Cholate] | profoundly interfered with preS-binding | Marginal reduction | inhibited HBV-infection |  | 
C[C@H](CCC(=O)NCCS(=O)(=O)O)[C@H]1CC[C@H]2[C@@H]3CC[C@@H]4C[C@H](O)CC[C@]4(C)[C@H]3C[C@H](O)[C@]12C [TDC, Taurodeoxycholate] | profoundly interfered with preS-binding | Marginal reduction | inhibited HBV-infection |  | 
MyrB^atto: atto-dye-labeled MyrB (atto488/atto565 NHS-ester coupled to lysine residues) |  |  |  | specific and competable binding | specific and competable binding
